In publication PMC4506092, “Utilizing Chemical Genomics to Identify Cytochrome b as a Novel Drug Target for Chagas Disease” (PLoS Pathogens, 2015):
Read-outs that look alike come from different tables or passages of the source.

Legend:
[1] = test system: T. cruzi epimastigotes (wild-type); assay: T. cruzi epimastigote growth assay (CellTiter-Glo), wild-type; assay type: cell-based, Trypanosoma cruzi; conditions: for EC50: wild-type T. cruzi, seven days, read-out: Epimastigote EC50, WT
Experimental: To determine compound activity on the T. cruzi epimastigote form, epimastigotes (20 μL; 2.5 × 10^5 parasites / mL) were added to 384-well assay plates containing 20 μL of LIT media with pre-dispensed compounds (0.2% DMSO final concentration) and incubated for seven days at 26°C / 0% CO2. Parasite viability was assessed at the end of this incubation period using the CellTiter-Glo Luminescent Cell Viability Assay (Promega). Luminescence as a measure of parasite viability was measured on the EnVision plate reader.

[2] = test system: T. cruzi trypomastigotes (wild-type); assay: T. cruzi trypomastigote viability assay (CellTiter-Glo), wild-type; assay type: cell-based, Trypanosoma cruzi; conditions: 48-hour incubation, read-out: Trypomastigote EC50, WT
Experimental: (§1) To assess compound efficacy on trypomastigotes, parasites (30 μL; 2 × 10^6 trypomastigotes / mL) were added to 384-well plates containing 10 μL of RPMI-1640 without phenol red (Invitrogen) and supplemented with 10% FBS and 100 IU penicillin / 100 µg streptomycin per mL, and then treated with compounds (0.2% DMSO final concentration). Following a 48-hour incubation period, viability was assessed using the CellTiter-Glo Luminescent Cell Viability Assay (Promega).

[3] = test system: T. cruzi trypomastigotes (GNF7686-resistant, DR); assay: T. cruzi trypomastigote viability assay (CellTiter-Glo), GNF7686-resistant; assay type: cell-based, Trypanosoma cruzi; conditions: for EC50: GNF7686-resistant T. cruzi, 48-hour incubation
Experimental: as §1

[4] = test system: T. b. brucei procyclics; assay: T. b. brucei procyclic form in vitro efficacy assay; assay type: cell-based, Trypanosoma brucei brucei; conditions: 72 hours
Experimental: For conversion from the bloodstream form to the procyclic form, bloodstream form parasites were transferred from HMI-9 medium to Differentiating Trypanosome Medium (DTM, pH = 7.2), consisting of: 6.8 g / L NaCl, 400 mg / L KCl, 200 mg / L CaCl2, 140 mg / L NaH2PO4.H2O, 200 mg / L MgSO4.7H2O, 7.94 g / L HEPES, 2.2 g / L NaHCO3, 110 mg / L sodium pyruvate, 10 mg / L phenol red, 14 mg / L hypoxanthine, 1 mg / L biotin, 760 mg / L glycerol, 640 mg / L proline, 236 mg / L glutamic acid, 1.34 g / L glutamine, 7.5 mg / L hemin (in 50 mM sodium hydroxide), 1X MEM amino acid solution (Invitrogen),1X MEM non-essential amino acids solution (Invitrogen), 28.2 mg / L bathocuproine disulfonate.Na2, 182 mg/L cysteine, 0.2 mM 2-mercaptoethanol, 15% heat-inactivated FBS, and 5 mM sodium citrate and cis-aconitate. Following medium exchange, parasites were incubated at a lower temperature (27°C / 5% CO2), monitored for change in morphology to procyclic parasites, and sub-cultured for long-term cultivation.
For compound screening, 20 μliters (5,000 parasites) of T. b. brucei procyclic culture were added to 384-well plate wells filled with 20 μliters of DTM medium and pre-dispensed compounds (0.25% final DMSO concentration). Plates were then incubated for 72 hours at 27°C / 5% CO2. Cell viability was assessed using the CellTiter-Glo Luminescent Cell Viability Assay (Promega).

[5] = test system: P. falciparum yDHODH-D10attB; assay: P. falciparum SYBR Green proliferation assay, yDHODH-D10attB line; assay type: cell-based, Plasmodium falciparum
Experimental: GNF7686 and cytochrome b inhibitors were assayed for activity on two Plasmodium falciparum (P. falciparum) lines: D10attB and yDHODH-D10attB. The D10attB line is reliant on the coenzyme Q-dependent malarial dihydroorotate dehydrogenase (PfDHODH), whereas the yDHODH-D10attB line expresses also the fumarate-utilizing Saccharomyces cerevisiae (S. cerevisiae) DHODH, which circumvents reliance on PfDHODH and renders this line fully resistant to cytochrome b inhibitors. The use of these two lines allows for distinction of selection of potent cytochrome b inhibitors as described in detail in the Results section. Growth and viability of P. falciparum cell lines (in the presence or absence of drug) in infected erythrocytes were assessed using a SYBR Green-based proliferation assay exactly as described previously.

[6] = test system: T. cruzi mutant complex III (cytochrome b L197F); assay: T. cruzi complex III activity (decylubiquinol / cytochrome c reaction), GNF7686-resistant; assay type: biochemical, Trypanosoma cruzi; conditions: digitonin-permeabilized epimastigotes
Experimental: T. cruzi epimastigotes ([…], density of 5 × 10^7 parasites / mL) were harvested by centrifugation (800 × g for 5 minutes at 4°C) and resuspended at 10 mg / mL of protein in buffer A containing 0.1 mg digitonin / mg protein. The parasites were then incubated with the detergent for 10 minutes at 26°C. The pellet fraction was collected by centrifugation (13,000 × g for 5 min at 4°C) and immediately used in the complex III assay.
Complex III activity was monitored using a coupled decylubiquinol / cytochrome c reaction. Decylubiquinone was first reduced to decylubiquinol as described. […] The reduction of cytochrome c was monitored at 550 nm using the SpectraMax Plus384 absorbance microplate reader. Blank samples containing all components excluding decylubiquinol were processed in parallel and absorbance values were subtracted from sample absorbance values to specifically measure […] reduction of cytochrome c. All sample and blank wells were prepared in triplicate. For IC50 determination, the slope of the linear portion of the corrected respiration trace was determined, and normalized to the slope obtained for 0.2% DMSO condition.

[7] = test system: T. cruzi intracellular amastigotes (GNF7686-resistant, DR); assay: T. cruzi intracellular amastigote efficacy assay in NIH/3T3 cells, GNF7686-resistant strain; assay type: cell-based; conditions: Trypanosoma cruzi, NIH3T3, intracellular amastigotes in NIH/3T3, 48-hour treatment
Experimental: To determine compound efficacy on T. cruzi intracellular amastigotes, NIH/3T3 cells were seeded (1,000 cells / well, 40 μL) into microscopy-grade, clear bottom, 384-well plates (Greiner) in RPMI-1640 medium containing 5% heat-inactivated fetal bovine serum and 100 IU penicillin / 100 μg streptomycin per mL. Plates were incubated overnight at 37°C / 5% CO2. Cells were infected with T. cruzi trypomastigotes at a multiplicity of infection (MOI) of 10 for the wild-type strain, and 20 for the GNF7686-resistant mutant strain. After six hours of infection (at 37°C / 5% CO2), the plates were washed by aspirating the medium and replacing with fresh screening medium to remove remaining extracellular trypomastigotes. The plates with infected cells were incubated overnight (37°C / 5% CO2) and compounds dissolved in DMSO were added to plate wells on the following day (0.2% DMSO final concentration). […] The plates were then scanned using the Evotec Opera High Content Screening System (Perkin Elmer) and amastigote proliferation was assessed by counting parasites within the 3T3 cells using CellProfiler version 2.1.0 cell image analysis software. […]

[8] = Plasmodium falciparum; read-out: P. falciparum EC50, yDHODH-D10attB

SMILES: CO/C(=C/C(N)=O)[C@H](C)[C@H](/C=C/c1csc(-c2csc([C@@H](C)/C=C/C=C/C(C)C)n2)n1)OC [Myxothiazol]
- EC50 [1]: 490 ± 50 nM
- EC50 [2]: 2900 ± 480 nM
- EC50 [3]: 2.9 ± 0.43 µM
- EC50 [4]: 2500 ± 220 nM
- EC50 ([5]; read-out: P. falciparum EC50, yDHODH-D10attB): 8.4 ± 1.6 µM

SMILES: CCCCCC[C@H]1C(=O)O[C@H](C)[C@H](NC(=O)c2cccc(NC=O)c2O)C(=O)O[C@@H](C)[C@@H]1OC(=O)CC(C)C [Antimycin A]
- EC50 ([1]; Trypanosoma cruzi, 168 h): 46 ± 10 nM
- EC50 ([2]; Trypanosoma cruzi): 200 ± 40 nM
- Shift of trypomastigote potency, mutant vs wild-type [3]: 20 fold
- EC50 ([3]; Trypanosoma cruzi): 4.3 ± 1.3 µM
- EC50 ([4]; Trypanosoma brucei): 30 ± 2 nM
- EC50 ([5]; Plasmodium falciparum, read-out: P. falciparum EC50, yDHODH-D10attB): > 12.5 µM
- Loss of potency on complex III, mutant vs wild-type [6]: ~ 100 fold

SMILES: CCc1c(C)c(C#N)c2nc3ccccc3n2c1O [GNF7686]
- EC50 [7]: 660 ± 120 nM
- EC50 ([1]; Trypanosoma cruzi, 168 h): 160 ± 20 nM
- EC20 value on T. cruzi epimastigotes ([1]; starting concentration of resistance selection): 0.01 µM
- EC50 ([2]; Trypanosoma cruzi): 710 ± 160 nM
- EC50 ([3]; Trypanosoma cruzi): 4.5 ± 0.84 µM
- EC50 ([4]; Trypanosoma brucei): 590 ± 90 nM
- EC50 [5, 8]: > 12.5 µM
- Loss of potency on complex III, mutant vs wild-type [6]: 20 fold

SMILES: CO\C=C(C(=O)OC)/C(C)=C\C=C\c1ccccc1 [Strobilurin]
- EC50 ([1]; Trypanosoma cruzi, 168 h): 590 ± 130 nM
- EC50 ([2]; Trypanosoma cruzi): 1700 ± 410 nM
- EC50 ([3]; Trypanosoma cruzi): 1.4 ± 0.36 µM
- EC50 ([4]; Trypanosoma brucei): 3200 ± 330 nM
- EC50 [5, 8]: > 12.5 µM

SMILES: O=C(Cn1ccnc1[N+](=O)[O-])NCc1ccccc1 [Benznidazole]
- EC50 [7]: 820 ± 130 nM
- EC50 ([1]; Trypanosoma cruzi, 168 h): 5500 ± 150 nM
- EC50 ([2]; Trypanosoma cruzi): 13000 ± 1800 nM
- EC50 ([3]; Trypanosoma cruzi): 11 ± 0.58 µM
- EC50 ([4]; Trypanosoma brucei): > 25000 nM
- EC50 [5, 8]: > 12.5 µM
